Laboratory results published in ChEMBL document CHEMBL1811762, “Gusanlungionosides A-D, potential tyrosinase inhibitors from Arcangelisia gusanlung” (J Nat Prod, 2011).
Activity calls are given as the source filed them. The calls are words filed in the database; no cut-off is given here.

Tests used:
[1] = tested on: B16-F10; assay: Cytotoxicity against mouse B16F10 cells up to 200 ug/mL; format: cell-based
[2] = tested on: B16-F10; assay: Antimelanogenic activity in alpha-MSH-stimulated mouse B16F10 cells pretreated for 30 mins before alpha-MSH challenge measured after 48 hrs by ELISA reader; format: functional, cell-based
[3] = tested on: B16-F10; assay: Decrease in tyrosinase mRNA expression in alpha-MSH-stimulated mouse B16F10 cells after 48 hrs by RT-PCR analysis; format: functional, cell-based
[4] = target: T1, Tyrosinase (Agaricus bisporus, UniProt O42713)
T1 sequence (O42713 whole entry): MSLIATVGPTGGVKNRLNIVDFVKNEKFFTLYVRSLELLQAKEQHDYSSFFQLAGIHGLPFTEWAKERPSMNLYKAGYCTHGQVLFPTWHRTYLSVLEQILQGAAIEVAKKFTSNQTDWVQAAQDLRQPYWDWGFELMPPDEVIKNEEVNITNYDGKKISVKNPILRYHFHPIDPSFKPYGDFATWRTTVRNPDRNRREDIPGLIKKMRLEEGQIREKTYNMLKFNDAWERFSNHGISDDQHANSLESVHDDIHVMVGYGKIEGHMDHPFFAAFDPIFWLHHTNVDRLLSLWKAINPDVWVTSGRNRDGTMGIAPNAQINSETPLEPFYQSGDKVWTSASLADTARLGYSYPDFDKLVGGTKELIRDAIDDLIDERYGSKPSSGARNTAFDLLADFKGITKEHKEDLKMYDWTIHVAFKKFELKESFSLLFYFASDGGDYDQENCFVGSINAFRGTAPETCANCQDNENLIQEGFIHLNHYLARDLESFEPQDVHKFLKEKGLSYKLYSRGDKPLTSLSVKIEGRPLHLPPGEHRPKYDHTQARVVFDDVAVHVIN
Description: Inhibition of mushroom tyrosinase using L-DOPA after 10 mins by ELISA reader

Row | Compound | IC50 [4] | Activity [1] | Activity [2] | Activity [3]
1 | COc1cc([C@@H]2c3c(cc(OC)c(O)c3OC)C[C@@H](CO)[C@H]2CO[C@@H]2O[C@H](CO)[C@@H](O)[C@H](O)[C@H]2O)cc(OC)c1O | > 1000 µM | Non-toxic | Active | –
2 | COc1cc2c(cc1O)C(=O)N(C)CC2 [THALIFOLINE] | > 1000 µM | Non-toxic | Active | –
3 | COc1cc([C@H]2c3c(cc(OC)c(O)c3OC)C[C@@H](CO)[C@H]2CO[C@@H]2O[C@H](CO)[C@@H](O)[C@H](O)[C@H]2O)cc(OC)c1O | > 1000 µM | Non-toxic | Active | –
4 | COc1cc2c(cc1OC)C(=O)N(C)CC2 | > 1000 µM | Non-toxic | Active | –
5 | COc1cc([C@H]2c3c(cc(OC)c(O)c3OC)C[C@H](CO)[C@@H]2CO[C@@H]2O[C@H](CO)[C@@H](O)[C@H](O)[C@H]2O)cc(OC)c1O | > 1000 µM | Non-toxic | Active | –
6 | COc1cc([C@H]2OC[C@H]3[C@@H]2CO[C@@H]3c2cc(OC)c(O)c(OC)c2)cc(OC)c1O [SYRINGARESINOL] | > 1000 µM | Non-toxic | Active | –
7 | COc1cc(/C=C/C(=O)NCCc2ccc(O)c(OC)c2)ccc1O | > 1000 µM | Non-toxic | Active | –
8 | COc1cc([C@@H]2c3c(cc(OC)c(O)c3OC)C[C@H](CO)[C@@H]2CO[C@@H]2O[C@H](CO)[C@@H](O)[C@H](O)[C@H]2O)cc(OC)c1O | > 1000 µM | Non-toxic | Active | –

Now from value to compound, other results behind:

Row | IC50 [4] | Compound | Activity [1] | Activity [2] | Activity [3]
9 | 160 µM | CC1=CC(=O)CC(C)(C)[C@H]1/C=C/[C@@H](C)O[C@@H]1O[C@H](CO)[C@@H](O)[C@H](O)[C@H]1O[C@@H]1O[C@@H](C)[C@H](O)[C@@H](O)[C@H]1O [GUSANLUNGIONOSIDE B] | Non-toxic | Active | Active
10 | > 1000 µM | OCc1ccc(O)cc1 [PARAHYDROXYBENZYL ALCOHOL] | Non-toxic | Active | –
11 | > 1000 µM | O=C(/C=C/c1ccc(O)cc1)NCCc1ccc(O)cc1 [N-P-COUMAROYL TYRAMINE] | Non-toxic | Active | –
12 | 190 µM | CC1=CC(=O)CC(C)(C)[C@H]1CC[C@@H](C)O[C@@H]1O[C@H](CO)[C@@H](O)[C@H](O)[C@H]1O[C@@H]1O[C@@H](C)[C@H](O)[C@@H](O)[C@H]1O [GUSANLUNGIONOSIDE D] | Non-toxic | Active | Active
13 | 150 µM | CC1=CC(=O)CC(C)(C)[C@@H]1/C=C/[C@@H](C)O[C@@H]1O[C@H](CO)[C@@H](O)[C@H](O)[C@H]1O[C@@H]1O[C@@H](C)[C@H](O)[C@@H](O)[C@H]1O [GUSANLUNGIONOSIDE A] | Non-toxic | Active | Active
14 | 200 µM | CC1=CC(=O)CC(C)(C)[C@@H]1CC[C@@H](C)O[C@@H]1O[C@H](CO)[C@@H](O)[C@H](O)[C@H]1O[C@@H]1O[C@@H](C)[C@H](O)[C@@H](O)[C@H]1O [GUSANLUNGIONOSIDE C] | Non-toxic | Active | Active
